Tests used:
CYP2C9 [1] = target: T1, CYP2C9 (Homo sapiens, UniProt P11712); experiment: Biological Test Example 7: CYP2C9 inhibition (naproxen O-demethylation); type: in vitro ADME
T1 construct: purchased Invitrogen 2859; host or cells: insect cells infected with baculovirus (microsomes)

CYP2C9 [2] = target: T1, CYP2C9; experiment: Biological Test Example 9: CYP2C9 inhibition (Invitrogen kit, fluorogenic OOMR); type: in vitro ADME
11β-HSD1 [3] = target: T2, 11β-HSD1 (Homo sapiens, UniProt P28845); experiment: biochemical; settings: for inhibition at 0.1 µM: read-out: Average % inhibition at 100 nM
T2 sequence (P28845 whole entry): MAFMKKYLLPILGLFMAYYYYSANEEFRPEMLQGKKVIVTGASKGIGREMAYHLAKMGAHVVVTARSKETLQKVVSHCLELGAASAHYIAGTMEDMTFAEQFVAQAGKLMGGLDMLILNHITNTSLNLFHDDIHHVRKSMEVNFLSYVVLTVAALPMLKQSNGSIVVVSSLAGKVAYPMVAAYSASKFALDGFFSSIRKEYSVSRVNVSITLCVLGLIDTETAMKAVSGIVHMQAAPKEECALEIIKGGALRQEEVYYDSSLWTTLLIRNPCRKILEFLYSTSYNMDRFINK

CYP2C19 = CYP2C19 (Homo sapiens, UniProt P33261); experiment: Biological Test Example 8: CYP2C19 inhibition (diazepam N-demethylation); type: in vitro ADME
Chain of CYP2C19 (P33261 whole entry): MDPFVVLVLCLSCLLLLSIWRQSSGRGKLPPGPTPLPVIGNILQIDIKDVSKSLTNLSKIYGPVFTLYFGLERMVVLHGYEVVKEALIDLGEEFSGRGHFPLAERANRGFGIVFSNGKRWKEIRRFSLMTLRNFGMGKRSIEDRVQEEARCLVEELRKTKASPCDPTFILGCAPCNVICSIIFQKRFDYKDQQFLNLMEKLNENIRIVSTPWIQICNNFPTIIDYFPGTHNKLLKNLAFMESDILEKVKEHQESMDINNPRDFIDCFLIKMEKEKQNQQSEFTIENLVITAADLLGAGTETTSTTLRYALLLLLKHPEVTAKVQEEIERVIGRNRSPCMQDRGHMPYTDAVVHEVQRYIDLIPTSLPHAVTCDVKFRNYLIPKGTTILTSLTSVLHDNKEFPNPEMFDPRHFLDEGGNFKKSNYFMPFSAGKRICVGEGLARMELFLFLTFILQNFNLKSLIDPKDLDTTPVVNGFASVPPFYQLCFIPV

11β-HSD1 [4] = target: T2, 11β-HSD1; experiment: Biological Test Example 4: microsomal 11β-HSD1 in the presence of 50% human plasma; settings: for Shift: IC50 in Test Example 4 divided by IC50 in Test Example 1
CYP3A4 = CYP3A4 (Homo sapiens, UniProt P08684); experiment: Biological Test Example 6: CYP3A4 inhibition (erythromycin N-demethylation); type: in vitro ADME
Chain of CYP3A4 (P08684 whole entry): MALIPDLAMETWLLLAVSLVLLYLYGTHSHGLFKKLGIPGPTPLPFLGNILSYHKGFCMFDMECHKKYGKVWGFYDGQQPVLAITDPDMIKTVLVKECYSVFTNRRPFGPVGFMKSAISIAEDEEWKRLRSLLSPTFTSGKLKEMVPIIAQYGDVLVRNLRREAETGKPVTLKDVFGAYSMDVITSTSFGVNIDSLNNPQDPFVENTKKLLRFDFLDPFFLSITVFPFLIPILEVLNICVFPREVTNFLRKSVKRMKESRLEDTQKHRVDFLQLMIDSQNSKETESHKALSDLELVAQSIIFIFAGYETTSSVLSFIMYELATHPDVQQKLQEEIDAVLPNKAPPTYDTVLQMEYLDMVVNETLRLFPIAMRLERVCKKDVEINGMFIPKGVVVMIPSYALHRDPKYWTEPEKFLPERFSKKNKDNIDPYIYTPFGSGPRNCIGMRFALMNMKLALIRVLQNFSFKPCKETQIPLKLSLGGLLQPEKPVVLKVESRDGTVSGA

[5] = Biological Test Example 1 IC50 (nM)
[6] = IC50 Range, Biological Test Example 1

T1 sequence (P11712 whole entry): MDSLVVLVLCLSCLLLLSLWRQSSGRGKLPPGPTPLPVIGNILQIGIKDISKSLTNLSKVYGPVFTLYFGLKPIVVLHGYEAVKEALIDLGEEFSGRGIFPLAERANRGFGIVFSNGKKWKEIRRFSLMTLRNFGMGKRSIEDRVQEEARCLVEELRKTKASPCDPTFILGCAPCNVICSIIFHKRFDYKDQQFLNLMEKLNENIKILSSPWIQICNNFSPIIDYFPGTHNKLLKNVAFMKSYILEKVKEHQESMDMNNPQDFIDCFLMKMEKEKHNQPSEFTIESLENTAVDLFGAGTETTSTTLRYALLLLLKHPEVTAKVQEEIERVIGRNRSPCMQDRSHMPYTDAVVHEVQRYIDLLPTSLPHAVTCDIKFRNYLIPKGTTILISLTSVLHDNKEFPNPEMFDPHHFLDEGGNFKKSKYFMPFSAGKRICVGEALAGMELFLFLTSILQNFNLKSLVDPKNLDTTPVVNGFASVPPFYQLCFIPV

Structure (SMILES)	IC50 (CYP2C9 [1])	IC50 (CYP2C9 [2])	IC50 (11β-HSD1 [3]; [5])	IC50 (11β-HSD1 [3]; [6])	inhibition at 0.1 µM (11β-HSD1 [3])	IC50 (CYP2C19)	IC50 (11β-HSD1 [4])	IC50 (CYP3A4)	Shift (11β-HSD1 [4])
Cc1cc(-c2ccc([C@H](C)N3CC[C@](CC(C)(C)O)(c4ccc(F)cc4)OC3=O)cc2)ccn1 [EXAMPLE 76, (S)-6-(4-fluorophenyl)-6-(2-hydroxy-2-methylpropyl)-3-((S)-1-(4-(2-methylpyridin-4-yl)phenyl)ethyl)-1,3-oxazinan-2-one]	2.9 µM	7.9 µM	0.8 nM	< 100 nM	98.7%	8.5 µM	0.0069 µM	5 µM	8.8
Cc1cc(-c2ccc([C@H](C)N3CC[C@](CC(C)(C)O)(c4ccccc4)OC3=O)cc2)ccn1 [EXAMPLE 97, (S)-6-(2-hydroxy-2-methylpropyl)-3-((S)-1-(4-(2-methylpyridin-4-yl)phenyl)ethyl)-6-phenyl-1,3-oxazinan-2-one]	11.2 µM	9.7 µM	1 nM	< 100 nM	98.8%	19.5 µM	0.0108 µM	8.9 µM	11.1
COc1ccc(-c2ccc([C@H](C)N3CC[C@](CC(C)(C)O)(c4ccccc4)OC3=O)cc2)cn1 [EXAMPLE 93, (S)-6-(2-hydroxy-2-methylpropyl)-3-((S)-1-(4-(6-methoxypyridin-3-yl)phenyl)ethyl)-6-phenyl-1,3-oxazinan-2-one]	8 µM	8 µM	–	–	–	11.4 µM	–	11.6 µM	–
C[C@@H](c1ccc(-c2cnc(C(=O)NC3CC3)nc2)cc1)N1CC[C@](CC(C)(C)O)(c2ccccc2)OC1=O [EXAMPLE 15, N-cyclopropyl-5-(4-((S)-1-((S)-6-(2-hydroxy-2-methylpropyl)-2-oxo-6-phenyl-1,3-oxazinan-3-yl)ethyl)phenyl)pyrimidine-2-carboxamide]	> 50 µM	–	1.7 nM	< 100 nM	94.1%	12.5 µM	0.0042 µM	> 50 µM	2.4
C[C@@H](c1ccc(-c2ccc(C(=O)NC(C)(C)C)cn2)cc1)N1CC[C@](CC(C)(C)C#N)(c2ccccc2)OC1=O [EXAMPLE 3, N-tert-butyl-6-(4-((S)-1-((R)-6-(2-cyano-2-methylpropyl)-2-oxo-6-phenyl-1,3-oxazinan-3-yl)ethyl)phenyl)nicotinamide]	2.5 µM	–	1 nM	< 100 nM	96.8%	3 µM	0.0079 µM	2.1 µM	8.0

Next, values leading:

IC50 (CYP2C9 [1])	IC50 (CYP2C9 [2])	IC50 (11β-HSD1 [3]; [5])	IC50 (11β-HSD1 [3]; [6])	inhibition at 0.1 µM (11β-HSD1 [3])	IC50 (CYP2C19)	IC50 (11β-HSD1 [4])	IC50 (CYP3A4)	Shift (11β-HSD1 [4])	Structure (SMILES)
14 µM	11.2 µM	2.2 nM	< 100 nM	98.5%	2.6 µM	0.0051 µM	5.6 µM	–	C[C@@H](c1ccc(-c2ccncn2)cc1)N1CC[C@](CC(C)(C)O)(c2ccccc2)OC1=O [EXAMPLE 131, (S)-6-(2-hydroxy-2-methylpropyl)-6-phenyl-3-((S)-1-(4-(pyrimidin-4-yl)phenyl)ethyl)-1,3-oxazinan-2-one]
21.4 µM	9.9 µM	–	–	–	18.2 µM	–	> 50 µM	–	Cc1cc(-c2ccc([C@H](C)N3CC[C@](CC(C)(C)O)(c4ccccc4)OC3=O)cc2)cc(C)n1 [EXAMPLE 139, (S)-3-((S)-1-(4-(2,6-dimethylpyridin-4-yl)phenyl)ethyl)-6-(2-hydroxy-2-methylpropyl)-6-phenyl-1,3-oxazinan-2-one]
> 50 µM	–	2.1 nM	< 100 nM	95.7%	> 50 µM	0.0129 µM	> 50 µM	–	C[C@@H](c1ccc(-c2ncc(C(=O)N(C)C)s2)cc1)N1CC[C@](CC(C)(C)O)(c2ccccc2)OC1=O [EXAMPLE 158, 2-(4-((S)-1-((S)-6-(2-hydroxy-2-methylpropyl)-2-oxo-6-phenyl-1,3-oxazinan-3-yl)ethyl)phenyl)-N,N-dimethylthiazole-5-carboxamide]

Source: patent publication US8569292B2, “Cyclic inhibitors of 11β-hydroxysteroid dehydrogenase 1” (Vitae Pharmaceuticals, Inc., priority 2008, dated 2013)
